The target of one test is T1, GSK-3α (Homo sapiens, UniProt P49840).
T1 construct: parallel detection of MAPK14, MAPKAPK2, MAPKAPK3, and GSK-3α; endogenous in cells; host or cells: HL-60 (ATCC CCL-240), living cells or cell extract
Nature of the test: CETSA in HL-60 cell extract, immunoblot. Type of test: binding. Conditions: for ΔTm at 20 µM / Tm (GSK-3α): 20 µM inhibitor; for Tm difference vs DMSO, same protein: inhibitor minus DMSO; for Tm (fitted melting curve): in °C; for Tm: GSK-3α, cell extract. The method, then:
(§1) For the differentiation of primary and secondary binding effects, CETSA experiments using cell extracts instead of living cells (cell extract test) are proposed in the literature. Therefore, we performed CETSA assays in HL-60 cell extracts under the same conditions as for living cells (Figure 1, Table 1, Supplementary Table S6).
(§2) HL-60 cells were expanded as described above for CETSA and TPP-TR to about 1.25 million cells per ml. 50 mL of the cell suspension, respectively, was transferred into 50 mL conical tubes. After centrifugation (300 rcf, 3 min, r.t.) and removing all of the supernating culture medium, the cells were washed twice with 25 mL PBS (r.t.) by gently resuspending the cells, followed by centrifugation (300 rcf, 3 min, r.t.) and the removal of the supernatant. The cells were transferred into pre-weighed 2 mL LoBind Eppendorf tubes using 1 mL PBS (r.t.), respectively, for resuspending. After centrifugation (300 rcf, 3 min, r.t.) and removing as much as possible of the supernatants, the cell wet weights were determined. The cells were stored at −80 °C after shock-freezing in liquid nitrogen.
(§3) Cell extracts were obtained by four freeze/thaw cycles as described above for CETSA and TPP-TR using 10 µL ice cold PBS supplemented with protease inhibitors per milligram of cell pellet wet weight for the initial resuspension of the pellet, followed by centrifugation (20,000 rcf, 30 min, 4 °C), and the recovery of the supernatant. After determining the protein content, the cell extracts were diluted to 1.8 mg/mL total protein concentration using ice-cold PBS supplemented with protease inhibitors and aliquots of 99 µL in PCR tube strips, and 1.1 mL in LoBind 1.5 mL Eppendorf tubes were shock-frozen in liquid nitrogen and stored at −80 °C or directly processed.
(§4) A fourth aliquot of 1.8 mg/mL HL-60 cell extract was supplemented with 2.2 µL of DMSO. […] After a brief centrifugation using a benchtop centrifuge, the temperature treatment at the ten different temperatures was performed as described in Section 4.1.1.
(§5) Additionally, the preparation of cell extracts containing the fraction of soluble, non-denatured proteins was performed as described in Section 4.1.1. for living cells, but omitting the freeze/thaw steps for cell lysis.
(§6) For each sample set comprising either ten temperature range samples or ten compound concentration range samples, the same volume of the cell extracts containing the fraction of soluble, non-denatured proteins was used for further analysis. This volume was determined using the two lowest temperature samples (36.5 and 41.2 °C) per temperature range sample set so that they contained an average of 5 µg total protein (e.g., 2.78 µL for all temperature range samples of a sample set whose two lowest temperature samples contain an average of 1.8 mg/mL protein). For the compound concentration range experiments, all samples of a set were used for averaging. The calculated volume was respectively transferred into PCR tubes of a tube strip, supplemented with SDS sample buffer (final concentrations: 25 mM dithiothreitol (DTT), 7.5% glycerol, 3% SDS, 37.5 mM Tris/HCl pH 7.0, 0.005% bromophenol blue), incubated for 10 min at r.t. and applied to SDS-PAGE under external cooling in an ice bath (MW marker: PageRuler pre-stained protein ladder (Thermo scientific, Waltham, MA, USA); NuPAGE 4–12% Bis-Tris Gels, 1.0 mm, Midi Protein Gel, 26-well (Thermo fisher scientific); ice cold MOPS SDS running buffer (50 mM MOPS, 50 mM Tris base, 0.1% SDS, 0.003% EDTA (free acid)); 50 V for 15 min, then 200 V for about 1.5 h, i.e., the rest of the run).
(Immunoblotting shows a protein as a band on a membrane.)

A further test has as its target MAPKAPK2 (Homo sapiens, UniProt P49137). Nature of the test: CETSA in HL-60 cell extract, immunoblot. Type of test: binding. To be noted: for Tm difference vs DMSO, same protein: MAPKAPK2, inhibitor minus DMSO. On the procedure:
as §1, §2, §3, §4, §5, §6

The next test has as its target USP24 (Homo sapiens, UniProt Q9UPU5). Nature of the test: TPP-CCR in living HL-60 cells.
A further test concerns MYLK. More on the design: method as in PMID 23398362. To be noted: cited from earlier work.
The mark [1] stands for this setting: read-out: ΔTm to DMSO in Cell Extract Compared to Living Cells (GSK-3α).
Setting [2] is: CETSA in cell extract (lysate), GSK3a.
The mark [3] stands for this setting: HL-60 cell extract, immunoblot, read-out: ΔTm to DMSO (GSK-3α).
[4] abbreviates: MAPKAPK2, cell extract, immunoblot.

Values joined by “and” are separate entries in the source; they are usually repeats but may differ in a detail not shown here. Equal values may be shown once. Read-outs that look alike come from different tables or passages of the source.

T1 sequence (P49840 whole entry): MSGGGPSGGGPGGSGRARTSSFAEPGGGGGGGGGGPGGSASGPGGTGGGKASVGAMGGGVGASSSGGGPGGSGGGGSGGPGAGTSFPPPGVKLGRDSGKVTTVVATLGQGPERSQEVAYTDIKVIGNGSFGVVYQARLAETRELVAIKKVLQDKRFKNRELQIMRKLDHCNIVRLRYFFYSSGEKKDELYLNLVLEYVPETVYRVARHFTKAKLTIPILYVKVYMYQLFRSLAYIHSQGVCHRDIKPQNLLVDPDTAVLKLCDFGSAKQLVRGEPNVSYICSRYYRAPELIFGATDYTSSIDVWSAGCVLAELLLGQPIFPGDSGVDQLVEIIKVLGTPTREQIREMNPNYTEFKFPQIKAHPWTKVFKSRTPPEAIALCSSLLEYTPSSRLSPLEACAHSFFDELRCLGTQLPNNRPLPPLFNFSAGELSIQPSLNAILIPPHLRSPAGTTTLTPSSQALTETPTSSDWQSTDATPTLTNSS
Sequence of MAPKAPK2 (P49137 whole entry): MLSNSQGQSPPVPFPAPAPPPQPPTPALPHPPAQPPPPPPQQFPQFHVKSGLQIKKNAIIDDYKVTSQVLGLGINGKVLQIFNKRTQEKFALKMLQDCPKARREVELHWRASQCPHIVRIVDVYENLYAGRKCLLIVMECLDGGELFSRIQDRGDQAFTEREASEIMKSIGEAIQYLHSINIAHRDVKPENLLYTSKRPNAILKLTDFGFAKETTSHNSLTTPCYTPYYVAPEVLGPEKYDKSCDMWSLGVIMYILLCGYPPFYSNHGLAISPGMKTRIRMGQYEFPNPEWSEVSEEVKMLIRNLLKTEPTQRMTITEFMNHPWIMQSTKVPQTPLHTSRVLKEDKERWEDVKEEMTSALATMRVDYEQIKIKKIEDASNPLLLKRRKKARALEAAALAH
Sequence of USP24 (Q9UPU5 whole entry): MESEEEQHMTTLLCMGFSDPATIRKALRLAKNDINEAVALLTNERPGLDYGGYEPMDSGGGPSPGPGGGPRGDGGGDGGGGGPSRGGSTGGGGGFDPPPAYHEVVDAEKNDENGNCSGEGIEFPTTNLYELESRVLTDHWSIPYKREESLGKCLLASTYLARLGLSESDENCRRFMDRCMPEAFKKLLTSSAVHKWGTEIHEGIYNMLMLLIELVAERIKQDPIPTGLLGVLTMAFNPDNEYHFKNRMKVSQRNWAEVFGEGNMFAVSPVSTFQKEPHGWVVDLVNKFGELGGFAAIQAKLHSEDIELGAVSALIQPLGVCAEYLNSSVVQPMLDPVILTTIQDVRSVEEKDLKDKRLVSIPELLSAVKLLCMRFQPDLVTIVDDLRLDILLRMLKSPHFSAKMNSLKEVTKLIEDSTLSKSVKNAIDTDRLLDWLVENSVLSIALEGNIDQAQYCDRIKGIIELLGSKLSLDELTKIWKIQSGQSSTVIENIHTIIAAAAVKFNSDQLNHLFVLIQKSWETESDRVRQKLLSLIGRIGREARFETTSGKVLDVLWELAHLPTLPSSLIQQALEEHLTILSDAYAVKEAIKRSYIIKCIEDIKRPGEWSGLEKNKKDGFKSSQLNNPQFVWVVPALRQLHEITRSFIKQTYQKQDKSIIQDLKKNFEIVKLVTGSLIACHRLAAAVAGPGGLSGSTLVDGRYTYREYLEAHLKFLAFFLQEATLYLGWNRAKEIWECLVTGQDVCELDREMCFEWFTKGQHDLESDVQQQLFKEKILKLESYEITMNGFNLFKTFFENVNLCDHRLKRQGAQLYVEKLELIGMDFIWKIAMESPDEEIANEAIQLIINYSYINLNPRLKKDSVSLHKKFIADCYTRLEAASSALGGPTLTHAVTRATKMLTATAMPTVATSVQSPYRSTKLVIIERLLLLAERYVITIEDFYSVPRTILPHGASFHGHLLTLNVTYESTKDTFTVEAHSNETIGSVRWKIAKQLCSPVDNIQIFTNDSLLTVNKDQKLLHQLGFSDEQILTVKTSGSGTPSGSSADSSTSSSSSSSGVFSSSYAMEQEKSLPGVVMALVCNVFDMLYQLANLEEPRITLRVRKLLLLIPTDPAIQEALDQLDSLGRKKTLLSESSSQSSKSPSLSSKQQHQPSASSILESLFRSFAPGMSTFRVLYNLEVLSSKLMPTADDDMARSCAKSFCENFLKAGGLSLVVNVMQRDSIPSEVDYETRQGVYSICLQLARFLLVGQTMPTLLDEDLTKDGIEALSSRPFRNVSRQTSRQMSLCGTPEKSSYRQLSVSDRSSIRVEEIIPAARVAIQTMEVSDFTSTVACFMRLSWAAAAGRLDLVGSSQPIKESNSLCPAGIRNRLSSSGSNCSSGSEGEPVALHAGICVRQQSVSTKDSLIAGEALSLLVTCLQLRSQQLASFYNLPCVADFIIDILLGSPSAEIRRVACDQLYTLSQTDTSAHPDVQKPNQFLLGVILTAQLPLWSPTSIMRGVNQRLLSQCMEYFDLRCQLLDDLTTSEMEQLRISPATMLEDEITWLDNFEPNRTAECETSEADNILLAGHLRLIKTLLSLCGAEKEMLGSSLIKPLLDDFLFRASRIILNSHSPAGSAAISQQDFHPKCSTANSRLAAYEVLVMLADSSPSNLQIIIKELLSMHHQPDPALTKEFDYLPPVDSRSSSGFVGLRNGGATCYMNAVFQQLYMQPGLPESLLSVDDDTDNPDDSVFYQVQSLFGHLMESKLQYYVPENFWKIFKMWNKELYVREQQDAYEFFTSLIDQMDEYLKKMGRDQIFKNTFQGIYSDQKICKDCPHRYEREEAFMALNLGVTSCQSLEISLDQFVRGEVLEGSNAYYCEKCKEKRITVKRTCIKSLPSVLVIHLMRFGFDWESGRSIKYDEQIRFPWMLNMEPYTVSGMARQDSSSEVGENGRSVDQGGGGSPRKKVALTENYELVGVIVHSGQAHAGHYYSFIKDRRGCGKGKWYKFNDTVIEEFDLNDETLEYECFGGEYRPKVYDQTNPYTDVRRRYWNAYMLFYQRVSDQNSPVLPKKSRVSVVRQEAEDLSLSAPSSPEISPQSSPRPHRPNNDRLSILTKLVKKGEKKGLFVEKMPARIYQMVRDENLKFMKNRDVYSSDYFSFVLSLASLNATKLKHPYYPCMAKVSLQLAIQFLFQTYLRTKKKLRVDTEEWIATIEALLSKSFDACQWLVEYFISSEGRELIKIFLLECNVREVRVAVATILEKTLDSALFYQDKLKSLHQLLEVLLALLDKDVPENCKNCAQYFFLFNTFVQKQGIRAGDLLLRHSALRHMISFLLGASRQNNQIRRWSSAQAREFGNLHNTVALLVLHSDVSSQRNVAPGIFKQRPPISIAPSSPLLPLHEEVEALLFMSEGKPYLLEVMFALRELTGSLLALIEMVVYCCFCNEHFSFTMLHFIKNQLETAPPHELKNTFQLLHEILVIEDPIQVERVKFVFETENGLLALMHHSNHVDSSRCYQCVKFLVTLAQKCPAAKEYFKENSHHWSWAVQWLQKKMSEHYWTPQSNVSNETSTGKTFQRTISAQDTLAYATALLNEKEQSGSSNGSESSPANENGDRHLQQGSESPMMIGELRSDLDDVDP

The ΔTm is the change in melting temperature against a reference sample. As a reminder, the EC50 is the concentration that produces a half-maximal response. Lower therefore signals greater potency. In the case of `Cn1c(NC[C@@H](N)Cc2ccccc2)nc(-c2ccncc2)c(-c2ccc3ccccc3c2)c1=O` [AMG-548], the ΔTm at 20 µM at GSK-3α (setting [1]) is -0.05 °C; on GSK-3α (setting [3]), -0.76 °C. Further, the “Tm difference vs DMSO, same protein” value on GSK-3α (setting [2]) is reported as -0.76; on MAPKAPK2 (CETSA in cell extract (lysate)), 2.96. Moreover, the “Tm (fitted melting curve)” value was found to be 48.26 at GSK-3α (setting [2]) and 51.06 at MAPKAPK2 (CETSA in cell extract (lysate), MAPKAPK2, in °C). Besides, the Tm at GSK-3α (immunoblot) is 48.26 °C; at MAPKAPK2 (setting [4]), 51.06 °C. At GSK-3α (HL-60 cell extract, immunoblot), the “Tm (GSK-3α)” value worked out at 48.26 °C. In addition, on MAPKAPK2 (20 µM inhibitor), the “ΔTm to DMSO in Cell Extract Compared to Living Cells (MAPKAPK2)” value was −2.22 °C. Further, the “Tm (MAPKAPK2)” value on MAPKAPK2 (HL-60 cell extract, 20 µM inhibitor, immunoblot) came to 51.06 °C. On MAPKAPK2 (HL-60 cell extract, 20 µM inhibitor, immunoblot, 20 µM), the “ΔTm to DMSO (MAPKAPK2)” value is 3.0 °C and 2.96 °C. Besides, the “ΔTm to DMSO in cell extract compared to living cells” value at MAPKAPK2 (MAPKAPK2, cell extract minus living cells) was -2.22 °C. The “ΔTm to DMSO” value at MAPKAPK2 (setting [4]) was 2.96 °C. A half-maximal effect at USP24 (EC50) was put at 2.69 nM. In addition, the “Hill slope (USP24)” value at USP24 (living HL-60 cells, […] °C, TMT-MS) was 0.71.

With `Cc1cnc(Nc2ccc(F)cc2Cl)nc1-c1c[nH]c(C(=O)N[C@H](CO)c2cccc(Cl)c2)c1` [ERK 11e], the ΔTm at 20 µM on GSK-3α (setting [1]) turned out to be 1.1 °C; on GSK-3α (setting [3]) it was 1.24 °C; at MAPKAPK2 (20 µM inhibitor, read-out: ΔTm to DMSO in Cell Extract Compared to Living Cells (MAPKAPK2)) it was 0.25 °C; on MAPKAPK2 (HL-60 cell extract, 20 µM inhibitor, immunoblot, read-out: ΔTm to DMSO (MAPKAPK2)), 0.23 °C. Moreover, the figures for the “Tm difference vs DMSO, same protein” value on GSK-3α (setting [2]) and at MAPKAPK2 (CETSA in cell extract (lysate)) were 1.24 and 0.23, respectively. For the same compound, the “Tm (fitted melting temperature)” value on GSK-3α (CETSA in cell extract (lysate), GSK3a, melting curve fit, in °C (unit assumed)) was 50.2547. The “Tm (fitted melting curve)” value on GSK-3α (setting [2]) stood at 50.25. In addition, the Tm at GSK-3α (immunoblot) stood at 50.25 °C. For the same compound, on GSK-3α (HL-60 cell extract, immunoblot), the “Tm (GSK-3α)” value was 50.25 °C.

In the case of `C[S+]([O-])c1ccc(-c2nc(-c3ccncc3)c(-c3ccc(F)cc3)[nH]2)cc1` (stereo not drawn) [SB203580], the “activity against MYLK” value in the test on MYLK is on record as “inactivity”.

Values taken from PMC9147192, “Small Molecule Arranged Thermal Proximity Coaggregation (smarTPCA)—A Novel Approach to Characterize Protein–Protein Interactions in Living Cells by Similar Isothermal Dose–Responses” (International Journal of Molecular Sciences, 2022).
